Measured values as given in PubChem BioAssay AID248 (DTP/NCI, 2004).
Several values for one entry are separate records, joined by “and”; a condition that tells them apart may be missing. Equal entries are not always repeated. Toxic doses and inconclusive results are not listed. Rule as the data show it: active = T/C of 150% or more; inactive = T/C below 125%.

Test system: L1210 leukemia ip in BDF1 mice, survival T/C
Experiment: NCI In Vivo Anticancer Drug Screen. Data for tumor model L1210 Leukemia (intraperitoneal) in B6D2F1 (BDF1) mice
Settings: endpoint: mean survival time, higher = longer survival
How it was run: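 Mice bearing the transplanted tumor received compound or vehicle. Survival of the treated group was divided by that of the vehicle-treated control group to give the ratio.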

[1] = dose: 100.0 mg/kg/injection, schedule: Q04DX002 (ip), vehicle: saline
[2] = dose: 200.0 mg/kg/injection, schedule: Q04DX002 (ip), vehicle: saline
[3] = dose: 400.0 mg/kg/injection, schedule: Q04DX002 (ip), vehicle: saline
[4] = dose: 100.0 mg/kg/injection, schedule: Q04DX002 (ip), vehicle: saline with Tween-80
[5] = dose: 100.0 mg/kg/injection, schedule: Q01DX001 (ip), vehicle: saline with Tween-80
[6] = dose: 200.0 mg/kg/injection, schedule: Q01DX001 (ip), vehicle: saline with Tween-80
[7] = dose: 50.0 mg/kg/injection, schedule: Q01DX009 (ip), vehicle: saline
[8] = dose: 100.0 mg/kg/injection, schedule: Q01DX009 (ip), vehicle: saline
[9] = dose: 100.0 mg/kg/injection, schedule: Q04DX003 (ip), vehicle: saline with Tween-80
[10] = dose: 200.0 mg/kg/injection, schedule: Q04DX003 (ip), vehicle: saline with Tween-80
[11] = dose: 400.0 mg/kg/injection, schedule: Q04DX003 (ip), vehicle: saline with Tween-80
[12] = dose: 100.0 mg/kg/injection, schedule: Q04DX003 (ip), vehicle: saline
[13] = dose: 100.0 mg/kg/injection, schedule: Q01DX009 (ip), vehicle: Klucel (hydroxypropylcellulose) (HPC)
[14] = dose: 100.0 mg/kg/injection, schedule: Q04DX003 (ip), vehicle: Klucel (hydroxypropylcellulose) (HPC)
[15] = dose: 200.0 mg/kg/injection, schedule: Q01DX009 (ip), vehicle: Klucel (hydroxypropylcellulose) (HPC)
[16] = dose: 200.0 mg/kg/injection, schedule: Q04DX003 (ip), vehicle: Klucel (hydroxypropylcellulose) (HPC)
[17] = dose: 400.0 mg/kg/injection, schedule: Q01DX009 (ip), vehicle: Klucel (hydroxypropylcellulose) (HPC)
[18] = dose: 100.0 mg/kg/injection, schedule: Q01DX009 (ip), vehicle: saline with Tween-80
[19] = dose: 200.0 mg/kg/injection, schedule: Q01DX009 (ip), vehicle: saline with Tween-80
[20] = dose: 400.0 mg/kg/injection, schedule: Q01DX009 (ip), vehicle: saline with Tween-80
[21] = dose: 100.0 mg/kg/injection, schedule: Q01DX001 (ip), vehicle: carboxymethylcellulose (CMC)
[22] = dose: 200.0 mg/kg/injection, schedule: Q01DX001 (ip), vehicle: carboxymethylcellulose (CMC)
[23] = dose: 400.0 mg/kg/injection, schedule: Q01DX001 (ip), vehicle: carboxymethylcellulose (CMC)

Measured: T/C

O=C(C1CC=CCC1)N1CCCCCC1 (centres undefined)
inactive: [1] 101 % of control | [2] 111 % of control | [3] 99 % of control

CCCNC(=S)NNC(=O)c1ccncc1
inactive: [4] 100 % of control | dose: 200.0 mg/kg/injection, schedule: Q04DX002 (ip), vehicle: saline with Tween-80 118 % of control

Oc1ccccc1C=NCCCN1CCOCC1.Oc1ccccc1C=NCCCN1CCOCC1.[Co]
inactive: dose: 12.5 mg/kg/injection, schedule: Q01DX001 (ip), vehicle: saline 98 % of control | dose: 25.0 mg/kg/injection, schedule: Q01DX001 (ip), vehicle: saline 100 % of control | dose: 50.0 mg/kg/injection, schedule: Q01DX001 (ip), vehicle: saline 98 % of control

CCCCOP(=O)(OCCCC)C(C)c1ccccc1 (centres undefined)
inactive: dose: 12.5 mg/kg/injection, schedule: Q04DX003 (ip), vehicle: saline with Tween-80 104 % of control | dose: 25.0 mg/kg/injection, schedule: Q01DX009 (ip), vehicle: saline with Tween-80 95 % of control and 100 % of control | dose: 25.0 mg/kg/injection, schedule: Q04DX002 (ip), vehicle: saline with Tween-80 95 % of control and 87 % of control | dose: 25.0 mg/kg/injection, schedule: Q04DX003 (ip), vehicle: saline with Tween-80 98 % of control | dose: 50.0 mg/kg/injection, schedule: Q01DX001 (ip), vehicle: saline with Tween-80 107 % of control | dose: 50.0 mg/kg/injection, schedule: Q01DX009 (ip), vehicle: saline with Tween-80 99 % of control and 104 % of control | dose: 50.0 mg/kg/injection, schedule: Q04DX002 (ip), vehicle: saline with Tween-80 103 % of control and 90 % of control | dose: 50.0 mg/kg/injection, schedule: Q04DX003 (ip), vehicle: saline with Tween-80 93 % of control and 106 % of control | [5] 107 % of control | [4] 94 % of control and 96 % of control and 108 % of control | [6] 94 % of control

CSCCCCCCSC
inactive: [7] 101 % of control | [8] 96 % of control | dose: 200.0 mg/kg/injection, schedule: Q01DX009 (ip), vehicle: saline 90 % of control

COC(=O)C1CNN=C1C(=O)N1Cc2cc3ccccc3nc2C1 (centres undefined)
inactive: dose: 10.0 mg/kg/injection, schedule: Q04DX003 (ip), vehicle: saline 94 % of control | dose: 20.0 mg/kg/injection, schedule: Q04DX003 (ip), vehicle: saline 97 % of control | dose: 40.0 mg/kg/injection, schedule: Q04DX003 (ip), vehicle: saline 91 % of control | dose: 80.0 mg/kg/injection, schedule: Q04DX003 (ip), vehicle: saline 97 % of control | dose: 160.0 mg/kg/injection, schedule: Q04DX003 (ip), vehicle: saline 99 % of control

CC(=O)NC(C)C#N (centres undefined)
inactive: [9] 103 % of control | [10] 95 % of control | [11] 95 % of control

C1CCN(CCC2CCNCC2)C1
inactive: dose: 25.0 mg/kg/injection, schedule: Q01DX009 (ip), vehicle: saline 106 % of control | dose: 25.0 mg/kg/injection, schedule: Q04DX003 (ip), vehicle: saline 97 % of control | [7] 95 % of control | dose: 50.0 mg/kg/injection, schedule: Q04DX003 (ip), vehicle: saline 97 % of control | [8] 106 % of control | [12] 96 % of control and 100 % of control

CSc1ssc(=Nc2ccc(C)cc2)c1-c1ccccc1
inactive: [13] 95 % of control | [14] 88 % of control | [15] 93 % of control | [16] 91 % of control | [17] 93 % of control | dose: 400.0 mg/kg/injection, schedule: Q04DX003 (ip), vehicle: Klucel (hydroxypropylcellulose) (HPC) 89 % of control

COc1ccc(/C(=N\O)C(c2ccc(OC)cc2)C(Cl)(Cl)Cl)cc1 (centres undefined)
inactive: [13] 92 % of control | [15] 95 % of control | [17] 97 % of control

CC1OC(C(Cl)(Cl)Cl)NC1=O (centres undefined)
inactive: [1] 89 % of control | [2] 99 % of control | [3] 89 % of control

COC(=O)c1cc(=O)c2cccc(C(=O)O)c2[nH]1
inactive: dose: 50.0 mg/kg/injection, schedule: Q01DX009 (ip), vehicle: Klucel (hydroxypropylcellulose) (HPC) 109 % of control | [13] 98 % of control | [15] 102 % of control

CCC(C)CNC(C)=O (centres undefined)
inactive: [12] 109 % of control | dose: 200.0 mg/kg/injection, schedule: Q04DX003 (ip), vehicle: saline 106 % of control | dose: 400.0 mg/kg/injection, schedule: Q04DX003 (ip), vehicle: saline 109 % of control

COC(=O)c1cccc(OC)c1I
inactive: dose: 50.0 mg/kg/injection, schedule: Q04DX003 (ip), vehicle: Klucel (hydroxypropylcellulose) (HPC) 98 % of control | [14] 106 % of control | [16] 103 % of control

CCCCCCOC(=O)C(C)(O)C(Cl)c1ccccc1 (centres undefined)
inactive: [1] 100 % of control | [2] 111 % of control | [3] 91 % of control

O=S(=O)(NO)c1ccccc1
inactive: [18] 98 % of control | [9] 98 % of control | [19] 96 % of control | [10] 100 % of control | [20] 98 % of control | [11] 98 % of control

CCOC(=O)CNC(=O)C(=[N+]=[N-])C(=O)COc1ccc(F)cc1
inactive: dose: 50.0 mg/kg/injection, schedule: Q01DX001 (ip), vehicle: carboxymethylcellulose (CMC) 104 % of control | [21] 95 % of control | [22] 101 % of control | [23] 90 % of control

O=C1C=CC(=O)N1c1cccc(N2C(=O)C=CC2=O)c1
inactive: dose: 8.0 mg/kg/injection, schedule: Q04DX003 (ip), vehicle: saline 102 % of control | dose: 16.0 mg/kg/injection, schedule: Q04DX003 (ip), vehicle: saline 95 % of control

CCCCCCc1c(C)nc(N)[nH]c1=O
inactive: dose: 100.0 mg/kg/injection, schedule: Q01DX001 (ip), vehicle: Klucel (hydroxypropylcellulose) (HPC) 92 % of control | [13] 105 % of control | dose: 200.0 mg/kg/injection, schedule: Q01DX001 (ip), vehicle: Klucel (hydroxypropylcellulose) (HPC) 89 % of control | [15] 100 % of control | dose: 400.0 mg/kg/injection, schedule: Q01DX001 (ip), vehicle: Klucel (hydroxypropylcellulose) (HPC) 92 % of control | [17] 97 % of control

CCCC1(c2ccsc2)NC(=O)NC1=O (centres undefined)
inactive: [21] 98 % of control | [22] 98 % of control | [23] 90 % of control

CCOC(=O)c1[nH]c(C)c(C(C)=O)c1C
inactive: [18] 92 % of control | [19] 97 % of control | [20] 100 % of control

CC1(C(=O)O)C2C3C=CC(C3)C21 (centres undefined)
inactive: [5] 97 % of control | [6] 93 % of control | dose: 400.0 mg/kg/injection, schedule: Q01DX001 (ip), vehicle: saline with Tween-80 92 % of control

CN(C)[C@@H]1C(=O)C(C(=O)NCNc2cccc(C(=O)O)c2C(=O)O)=C(O)[C@@]2(O)C(=O)C3=C(O)c4c(O)cccc4[C@@](C)(O)[C@H]3C[C@@H]12
inactive: dose: 100.0 mg/kg/injection, schedule: Q01DX Z (ip), vehicle: saline 110 % of control | dose: 150.0 mg/kg/injection, schedule: Q01DX Z (ip), vehicle: saline 105 % of control | dose: 225.0 mg/kg/injection, schedule: Q01DX Z (ip), vehicle: saline 104 % of control | dose: 340.0 mg/kg/injection, schedule: Q01DX Z (ip), vehicle: saline 103 % of control

Cc1ccc([N+](=O)[O-])cc1NC(=O)SCCOC(=O)COc1ccc(Cl)cc1Cl
inactive: [18] 94 % of control | [9] 93 % of control | [19] 94 % of control | [10] 98 % of control | [20] 105 % of control | [11] 89 % of control

ClCCN(CCCl)c1ccc(C[n+]2ccc3ccccc3c2)cc1
inactive: dose: 8.0 mg/kg/injection, schedule: Q01DX015 (ip), vehicle: carboxymethylcellulose (CMC) 109 % of control | dose: 16.0 mg/kg/injection, schedule: Q01DX015 (ip), vehicle: carboxymethylcellulose (CMC) 113 % of control | dose: 32.0 mg/kg/injection, schedule: Q01DX015 (ip), vehicle: carboxymethylcellulose (CMC) 106 % of control

CC(C)(Cl)CCl
inactive: [18] 106 % of control | [9] 101 % of control | [19] 89 % of control | [10] 98 % of control
